# Measurements reported in USRE38132E1, “Phenylpyrrolidines, phenylimidazolidines,3-phenyl-1,3-oxizolidines and 3-phenyl-1,3-thiazolidines and their use in the treatment of inflammatory disease” (Boehringer Ingelheim Pharmaceuticals, Inc., priority 1997, dated 2003).
# Target: T1, interaction of ICAM-1 with the Leukointegrin CD18/CD11a (LFA-1) (Homo sapiens, UniProt P05107+P20701)
# T1 construct: endogenous in cells; sICAM-1: made in house, secreted from transfected CHO DUX cells
# Experiment: Assay to determine inhibition of LFA-1 binding to ICAM-1 (immunopurified LFA-1 on plate-bound sICAM-1, ELISA readout)
# Settings: not given
# T1 sequence (P20701 26-1170): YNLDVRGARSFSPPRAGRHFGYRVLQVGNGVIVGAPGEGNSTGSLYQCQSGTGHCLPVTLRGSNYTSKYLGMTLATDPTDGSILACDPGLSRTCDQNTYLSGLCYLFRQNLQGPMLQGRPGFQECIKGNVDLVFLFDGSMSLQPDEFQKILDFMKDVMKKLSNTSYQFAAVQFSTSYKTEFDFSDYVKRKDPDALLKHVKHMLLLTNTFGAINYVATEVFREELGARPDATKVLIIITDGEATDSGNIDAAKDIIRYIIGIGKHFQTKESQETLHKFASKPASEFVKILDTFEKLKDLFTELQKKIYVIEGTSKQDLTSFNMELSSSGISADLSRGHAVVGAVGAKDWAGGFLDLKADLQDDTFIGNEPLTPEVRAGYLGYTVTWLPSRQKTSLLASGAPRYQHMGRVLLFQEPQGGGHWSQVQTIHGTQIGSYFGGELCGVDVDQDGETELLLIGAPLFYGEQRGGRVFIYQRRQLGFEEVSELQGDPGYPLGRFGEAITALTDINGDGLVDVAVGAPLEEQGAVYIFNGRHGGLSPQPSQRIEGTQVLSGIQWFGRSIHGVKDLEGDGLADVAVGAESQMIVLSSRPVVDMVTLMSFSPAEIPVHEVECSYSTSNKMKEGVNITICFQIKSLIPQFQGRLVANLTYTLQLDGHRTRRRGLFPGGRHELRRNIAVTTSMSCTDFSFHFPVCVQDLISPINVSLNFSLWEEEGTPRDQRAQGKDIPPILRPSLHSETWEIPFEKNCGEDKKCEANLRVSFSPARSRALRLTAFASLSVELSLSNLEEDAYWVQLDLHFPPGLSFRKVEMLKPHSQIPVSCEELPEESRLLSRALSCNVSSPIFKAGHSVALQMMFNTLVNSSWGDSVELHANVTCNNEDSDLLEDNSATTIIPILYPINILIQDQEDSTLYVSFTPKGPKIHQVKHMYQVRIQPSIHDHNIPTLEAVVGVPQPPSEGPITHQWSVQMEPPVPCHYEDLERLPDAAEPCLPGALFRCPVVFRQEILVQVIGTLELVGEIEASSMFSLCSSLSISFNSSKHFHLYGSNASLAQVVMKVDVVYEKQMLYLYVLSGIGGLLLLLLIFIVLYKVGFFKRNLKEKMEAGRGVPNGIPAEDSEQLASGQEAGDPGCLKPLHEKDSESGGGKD
# T1 sequence (P05107 23-769): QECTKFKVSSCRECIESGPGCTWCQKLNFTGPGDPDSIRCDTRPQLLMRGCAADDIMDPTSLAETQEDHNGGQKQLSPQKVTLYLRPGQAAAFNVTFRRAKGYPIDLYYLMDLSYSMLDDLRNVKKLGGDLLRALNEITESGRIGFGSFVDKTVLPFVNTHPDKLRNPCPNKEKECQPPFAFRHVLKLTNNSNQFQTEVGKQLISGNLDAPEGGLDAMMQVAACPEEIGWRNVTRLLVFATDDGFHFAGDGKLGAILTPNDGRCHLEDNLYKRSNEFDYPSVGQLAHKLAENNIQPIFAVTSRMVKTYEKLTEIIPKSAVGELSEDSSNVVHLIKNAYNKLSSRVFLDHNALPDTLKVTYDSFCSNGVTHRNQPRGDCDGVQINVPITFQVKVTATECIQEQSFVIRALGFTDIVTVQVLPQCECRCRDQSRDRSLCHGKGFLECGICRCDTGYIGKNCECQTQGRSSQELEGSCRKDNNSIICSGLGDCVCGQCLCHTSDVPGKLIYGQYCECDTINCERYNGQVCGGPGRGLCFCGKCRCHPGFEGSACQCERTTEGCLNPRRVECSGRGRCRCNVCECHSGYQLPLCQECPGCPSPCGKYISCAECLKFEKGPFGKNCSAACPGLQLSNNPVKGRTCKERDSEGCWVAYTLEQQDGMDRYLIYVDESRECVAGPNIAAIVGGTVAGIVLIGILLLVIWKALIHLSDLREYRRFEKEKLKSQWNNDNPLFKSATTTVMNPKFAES
row,Structure (SMILES),Kd [nM]
1,C[C@@H](c1ccccc1)[C@@]1(C)C(=O)N(c2cc(Cl)cc(Cl)c2)C(=O)N1C [Example 270],650
2,CN1C(=O)N(c2cc(C(F)(F)F)cc(C(F)(F)F)c2)C(=O)[C@@]1(C)Cc1ccccc1 [Example 267],400
3,CC1(Cc2ccccc2)C(=O)N(c2cc(Cl)cc(Cl)c2)C(=O)N1CCO (stereo not drawn) [Example 218],800
4,C[C@@]1(Cc2ccc(Br)cc2)CC(=O)N(c2cc(Cl)cc(Cl)c2)C1=O [Example 278],1090
5,O=C1NC(CCc2ccc(I)cc2)C(=O)N1c1cc(Cl)cc(Cl)c1 (stereo not drawn) [Example 217],1780
6,C[C@@]1(Cc2ccc(Br)cc2)C(=O)N(c2cc(Cl)cc(Cl)c2)C(=O)N1CCCCCP(=O)(O)O [Example 221],140
7,CN1C(=O)N(c2cc(C(F)(F)F)cc(C(F)(F)F)c2)C(=O)[C@]1(C)Cc1ccccc1 [Example 268],1590
8,C[C@]1(Cc2ccc(Br)cc2)CC(=O)N(c2cc(Cl)cc(Cl)c2)C1=O [Example 277],70
9,CCN1C(=O)N(c2cc(Cl)cc(Cl)c2)C(=O)[C@]1(C)Cc1ccc(Br)cc1 [Example 275],2000
10,Cc1cc(C)cc(-c2ccc(CC3(C)NC(=O)N(c4cc(Cl)cc(Cl)c4)C3=O)cc2)c1 (stereo not drawn) [Example 210],540
11,CN(C)C(=O)c1ccc(CC2(C)C(=O)N(c3cc(Cl)cc(Cl)c3)C(=O)N2C)cc1 (stereo not drawn) [Example 258],1660

# Same assay, conditions: values marked e approximated from incomplete dose-response curve
row,Structure (SMILES),Kd [nM]
1,COc1ccc(CC2NC(=O)N(c3cc(Cl)cc(Cl)c3)C2=O)cc1 (stereo not drawn) [Example 8],2860
2,O=C1NC(Cc2cccc(O)c2)C(=O)N1c1cc(Cl)cc(Cl)c1 (stereo not drawn) [Example 4],9320
3,CC1(Cc2ccc(O)cc2)NC(=O)N(c2cc(Cl)cc(Cl)c2)C1=O (stereo not drawn) [Example 9],7870
4,O=C1NC(Cc2ccc(O)cc2)C(=O)N1c1cc(Cl)cc(Cl)c1 (stereo not drawn) [Example 5],15400
5,CC1(Cc2ccc(C(C)(C)C)cc2)NC(=O)N(c2cc(Cl)cc(Cl)c2)C1=O (stereo not drawn) [Example 52],1590
6,CC1(Cc2ccc(-c3ccc(Cl)cc3Cl)cc2)NC(=O)N(c2cc(Cl)cc(Cl)c2)C1=O (stereo not drawn) [Example 201],680
7,CC(C)N1C(=O)N(c2cc(Cl)cc(Cl)c2)C(=O)C1(C)Cc1ccc(Br)cc1 (stereo not drawn) [Example 139],790
8,CN1C(=O)N(c2cc(Cl)cc(Cl)c2)C(=O)C1(C)Cc1ccccc1 (stereo not drawn) [Example 158],690
9,CN1C(=S)N(c2cc(Cl)cc(Cl)c2)C(=S)C1(C)Cc1ccc(Br)cc1 (stereo not drawn) [Example 79],430
10,O=C1C(Cc2ccccc2)N(Cc2ccccc2)C(=O)N1c1cc(Cl)cc(Cl)c1 (stereo not drawn) [Example 84],420
11,CC(C)C1(Cc2ccccc2)NC(=O)N(c2cc(Cl)cc(Cl)c2)C1=O (stereo not drawn) [Example 32],12100
12,CN1C(=O)N(c2cc(Cl)cc(Cl)c2)C(=O)C1(C)Cc1ccc2c(c1)OCO2 (stereo not drawn) [Example 160],640
13,Cc1cccc(CC2(C)C(=O)N(c3cc(Cl)cc(Cl)c3)C(=O)N2C)c1 (stereo not drawn) [Example 143],1200
14,CC1(Cc2ccc(Br)cc2)NC(=S)N(c2cc(Cl)cc(Cl)c2)C1=S (stereo not drawn) [Example 78],340
15,CC(N)(Cc1c[nH]c2ccccc12)C(=O)O (stereo not drawn) [Example 25],3080
16,Cc1ccc(-c2ccc(CC3(C)NC(=O)N(c4cc(Cl)cc(Cl)c4)C3=O)cc2)cc1[N+](=O)[O-] (stereo not drawn) [Example 192],~1000
17,CC1(Cc2ccc(-c3cccc(Cl)c3)cc2)NC(=O)N(c2cc(Cl)cc(Cl)c2)C1=O (stereo not drawn) [Example 202],230
18,CN(C)C(=O)CN1C(=O)N(c2cc(Cl)cc(Cl)c2)C(=O)[C@@]1(C)Cc1ccc(Br)cc1 [Example 107],490
19,O=C(c1ccccc1)c1ccc(CC2NC(=O)N(c3cc(Cl)cc(Cl)c3)C2=O)cc1 (stereo not drawn) [Example 1],1640
20,CN1C(=O)N(c2cccc(Cl)c2)C(=O)[C@@]1(C)Cc1ccc(Br)cc1 [Example 101],680
21,CCCCOc1cc(CC2(C)NC(=O)N(c3cc(Cl)cc(Cl)c3)C2=O)nc(C(F)(F)F)c1 (stereo not drawn) [Example 63],~3000
22,CC1(Cc2ccc(-c3cccs3)cc2)NC(=O)N(c2cc(Cl)cc(Cl)c2)C1=O (stereo not drawn) [Example 195],300
23,CC1(Cc2ccc(-c3cccc([N+](=O)[O-])c3)cc2)NC(=O)N(c2cc(Cl)cc(Cl)c2)C1=O (stereo not drawn) [Example 204],500
24,CN1C(=O)N(c2cc(Cl)cc(Cl)c2)C(=O)C1(C)Cc1ccc(C(=O)c2ccccc2)cc1 (stereo not drawn) [Example 168],410
25,CC1(Cc2ccc(-c3ccccc3Cl)cc2)NC(=O)N(c2cc(Cl)cc(Cl)c2)C1=O (stereo not drawn) [Example 191],140
26,O=C1NC(Cc2ccccc2O)C(=O)N1c1cc(Cl)cc(Cl)c1 (stereo not drawn) [Example 3],3000

row,Structure (SMILES),Kd [nM]
1,CN1C(=O)N(c2cc(Cl)cc(Cl)c2)C(=O)C1(C)Cc1ccccc1Cl (stereo not drawn) [Example 156],690
2,C[C@]1(Cc2ccc(-c3ccc(C(=O)O)cc3)cc2)NC(=O)N(c2cc(Cl)cc(Cl)c2)C1=O [Example 183],940
3,CN1C(=O)N(c2cc(Cl)cc(Cl)c2)C(=O)[C@@]1(C)Cc1ccc(-c2ccc(C(=O)O)cc2)cc1 [Example 186],1110
4,O=C1NC(C(O)c2ccccc2)C(=O)N1c1cc(Cl)cc(Cl)c1 (stereo not drawn) [Example 179],3840
5,Cc1ccccc1-c1ccc(CC2(C)NC(=O)N(c3cc(Cl)cc(Cl)c3)C2=O)cc1 (stereo not drawn) [Example 197],190
6,O=C1NC(c2ccccc2)C(=O)N1c1cc(Cl)cc(Cl)c1 (stereo not drawn) [Example 6],12800
7,CC1(Cc2cccc(O)c2)NC(=O)N(c2cc(Cl)cc(Cl)c2)C1=O (stereo not drawn) [Example 11],6300
8,CN1C(=O)N(c2cc(Cl)cc(Cl)c2)C(=O)C1(C)Cc1c(F)c(F)c(F)c(F)c1F (stereo not drawn) [Example 167],600
9,CCCC1(Cc2ccccc2)NC(=O)N(c2cc(Cl)cc(Cl)c2)C1=O (stereo not drawn) [Example 31],1360
10,COc1ccc(CN2C(=O)N(c3cc(Cl)cc(Cl)c3)C(=O)[C@@]2(C)Cc2ccc(Br)cc2)cc1 [Example 113],1910
11,CC1(Cc2ccc(-c3ccc(Cl)s3)cc2)NC(=O)N(c2cc(Cl)cc(Cl)c2)C1=O (stereo not drawn) [Example 199],270
12,CC1(Cc2ccc(-c3ccc(C(F)(F)F)cc3)cc2)NC(=O)N(c2cc(Cl)cc(Cl)c2)C1=O (stereo not drawn) [Example 208],650
13,C[C@@]1(Cc2ccc(Br)cc2)C(=O)N(c2cc(Cl)cc(Cl)c2)C(=O)N1Cc1ccccc1C#N [Example 114],260
14,COc1cccc(CC2(C)C(=O)N(c3cc(Cl)cc(Cl)c3)C(=O)N2C)c1 (stereo not drawn) [Example 165],1070
15,CN1C(=O)N(c2cc(Cl)cc(Cl)c2)C(=O)C1(C)Cc1cccc(F)c1 (stereo not drawn) [Example 147],340
16,O=C1NC(Cc2ccsc2)C(=O)N1c1cc(Cl)cc(Cl)c1 (stereo not drawn) [Example 26],2750
17,O=C1NC(CCc2ccccc2)C(=O)N1c1cc(Cl)cc(Cl)c1 (stereo not drawn) [Example 12],1750
18,CC1(Cc2ccc(-c3ccc(Cl)cc3)cc2)NC(=O)N(c2cc(Cl)cc(Cl)c2)C1=O (stereo not drawn) [Example 205],560
19,CC(C)(C)OC(=O)CN1C(=O)N(c2cc(Cl)cc(Cl)c2)C(=O)C1(C)Cc1ccccc1 (stereo not drawn) [Example 91],430
20,CN(C)CCN1C(=O)N(c2cc(Cl)cc(Cl)c2)C(=O)C1(C)Cc1ccc(Br)cc1 (stereo not drawn) [Example 99],520
21,Cc1ccc(CC2(C)C(=O)N(c3cc(Cl)cc(Cl)c3)C(=O)N2C)cc1 (stereo not drawn) [Example 170],20
22,COC(=O)c1ccc(CC2(C)NC(=O)N(c3cc(Cl)cc(Cl)c3)C2=O)cc1 (stereo not drawn) [Example 46],2260
23,CC1(Cc2ccccc2)CC(=O)N(c2cc(Cl)cc(Cl)c2)C1=O (stereo not drawn) [Example 75],290
24,CC(=O)Nc1cccc(-c2ccc(CC3(C)NC(=O)N(c4cc(Cl)cc(Cl)c4)C3=O)cc2)c1 (stereo not drawn) [Example 203],340
25,Cc1cccc(C)c1CC1(C)NC(=O)N(c2cc(Cl)cc(Cl)c2)C1=O (stereo not drawn) [Example 38],1150

# System: SKW3 cells
# Experiment: not given
# Settings: not given
row,Structure (SMILES),Cellular Toxicity Assay MTT LD50 [µM]
1,COc1ccc(CC2NC(=O)N(c3cc(Cl)cc(Cl)c3)C2=O)cc1 (stereo not drawn) [Example 8],125 to 500
2,O=C1NC(Cc2cccc(O)c2)C(=O)N1c1cc(Cl)cc(Cl)c1 (stereo not drawn) [Example 4],250 to 500
3,C[C@@H](c1ccccc1)[C@@]1(C)C(=O)N(c2cc(Cl)cc(Cl)c2)C(=O)N1C [Example 270],250 to 500
4,CC1(Cc2ccc(O)cc2)NC(=O)N(c2cc(Cl)cc(Cl)c2)C1=O (stereo not drawn) [Example 9],250 to 500
5,O=C1NC(Cc2ccc(O)cc2)C(=O)N1c1cc(Cl)cc(Cl)c1 (stereo not drawn) [Example 5],250 to 500
6,CN1C(=O)N(c2cc(C(F)(F)F)cc(C(F)(F)F)c2)C(=O)[C@@]1(C)Cc1ccccc1 [Example 267],250
7,CN1C(=O)N(c2cc(C(F)(F)F)cc(C(F)(F)F)c2)C(=O)[C@]1(C)Cc1ccccc1 [Example 268],250 to 500
8,O=C1NC(Cc2ccccc2O)C(=O)N1c1cc(Cl)cc(Cl)c1 (stereo not drawn) [Example 3],125 to 250
9,O=C1NC(c2ccccc2)C(=O)N1c1cc(Cl)cc(Cl)c1 (stereo not drawn) [Example 6],250 to 500
10,O=C1NC(CCc2ccccc2)C(=O)N1c1cc(Cl)cc(Cl)c1 (stereo not drawn) [Example 12],125 to 250
